# Results published in PMC8632988, “Inhibition of SYK and cSrc kinases can protect bone and cartilage in preclinical models of osteoarthritis and rheumatoid arthritis” (Scientific Reports, 2021).
# Values joined by “and” are separate entries in the source; they are usually repeats but may differ in a detail not shown here. Identical values can stand only once.
# Tested on: DBA/1 mice, CIA model
# Assay: Collagen-induced arthritis model in mice
# Type: in vivo, mouse
# Set-up: Total AUC Sum (d1-11) / Total AUC Sum (d1-11), Mean: scale not given here
# Protocol: Collagen-induced arthritis (CIA) model was performed at Bolder BioPATH, USA. Study design and animal usage was approved by Bolder BioPATH’s Institutional Animal Care and Use Committee. CIA was induced in 6–7 week old male DBA/1 mice with body weight of 15–26 g (Harlan, Inc) by intradermal injection of Freund’s Complete Adjuvant (Difco) containing bovine type II collagen (Bolder BioPATH) on day 0 and again on day 21 according to the standard protocol. […] After that mice were randomized into six groups: a control group of four, vehicle group and four treatment groups of ten mice each. […] Each paw was scored daily for inflammation. Therapeutic and prophylactic paws were considered. At study termination mice were euthanized by CO2 inhalation followed by cervical dislocation. Fore paws, hind paws, and knees were removed for microscopy.
# Mice were weighed on arthritis days 1, 3, 5, 7, 9, and 11 (prior to necropsy). Daily clinical scores were given for each of the paws (right front, left front, right rear, left rear) on days 1–11 using the following criteria:
# After 1–2 days in fixative and 4–5 days in 5% formic acid for decalcification, tissues were trimmed, processed for paraffin embedding, sectioned at 8 µm and stained with toluidine blue. Hind paws and knees were embedded and sectioned in the frontal plane. Two joints from each animal were processed for histopathology evaluation. The joints were then scored by two independent readers as indicated below. When scoring, severity of changes as well as number of individual joints affected were considered. When only 1–3 joints of the paws or ankles out of a possibility of numerous metacarpal/metatarsal/digit or tarsal/tibiotarsal joints were affected, an arbitrary assignment of a maximum score of 1, 2 or 3 for parameters below was given depending on severity of changes. If more than 3 joints were involved, the criteria below were applied to the most severely affected/majority of joints.
# [1] = all joints, MT-SYK-03 103 mg/kg PO, BID (Group 4)
# [2] = all joints, MT-SYK-03 103 mg/kg PO, BID (Group 4), group mean
# [3] = all joints, MT-SYK-03 103 mg/kg PO, BID (Group 4), individual animals, 103 mg/kg
compound,measurement,setting,value
COc1cc(Nc2ncnc(Nc3cc4c(cn3)NC(=O)C(C)(C)O4)n2)cc(OC)c1OC [MT-SYK-03],"% inhibition to Vehicle, Summed Prophylactic (Non-Enrollment) Paw Score","MT-SYK-03 103 mg/kg PO, BID, Day 11",17%
same,Summed Prophylactic (Non-Enrollment) Paw Score,"MT-SYK-03 103 mg/kg PO, BID, Day 11, group mean",7.30
same,Summed Prophylactic (Non-Enrollment) Paw Score,"MT-SYK-03 103 mg/kg PO, BID, Day 11, individual animals, 103 mg/kg",9 and 3 and 12 and 8 and 2 and 10 and 7 and 5
same,"Total AUC Sum (d1-11), Prophylactic (Non-Enrollment) Paw Score","MT-SYK-03 103 mg/kg PO, BID, group mean",54.15
same,"Total AUC Sum (d1-11), Prophylactic (Non-Enrollment) Paw Score","MT-SYK-03 103 mg/kg PO, BID, individual animals, 103 mg/kg",67.5 and 27.5 and 71.0 and 61.0 and 12.0 and 80.0 and 70.5 and 51.5 and 63.0 and 37.5
same,"% inhibition, Bone Resorption score",[1],29%
same,"% inhibition, Cartilage Damage score",[1],17%
same,"% inhibition, Inflammation score",[1],7%
same,"% inhibition, Pannus score",[1],29%
same,"% inhibition, Periosteal Bone Formation score",[1],18%
same,"% inhibition, Periosteal Bone Width",[1],20%
same,"% inhibition, Summed Scores",[1],18%
same,"Histopathology Scores Bone Resorption, Mean",[2],1.23
same,"Histopathology Scores Cartilage Damage, Mean",[2],2.74
same,"Histopathology Scores Inflammation, Mean",[2],3.44
same,"Histopathology Scores Pannus, Mean",[2],1.23
same,"Histopathology Scores Periosteal Bone Formation, Mean",[2],0.93
same,"Histopathology Scores Summed Scores, Mean",[2],9.58
same,"Periosteal Bone Width (40*25x measure), Mean",[2],79.33 μm
same,Histopathology Scores Bone Resorption,[3],0.83 and 0.75 and 1.17 and 1.92 and 1.42 and 2.00 and 1.75 and 0.33
same,Histopathology Scores Cartilage Damage,[3],2.33 and 2.00 and 2.58 and 4.00 and 1.67 and 2.75 and 4.17 and 3.25 and 0.67
same,Histopathology Scores Inflammation,[3],2.83 and 3.17 and 3.83 and 4.67 and 1.92 and 3.42 and 4.50 and 4.33
same,Histopathology Scores Pannus,[3],0.83 and 0.75 and 1.17 and 1.92 and 1.42 and 2.00 and 1.75 and 0.33
same,Histopathology Scores Periosteal Bone Formation,[3],0.67 and 1.17 and 1.33 and 0.33 and 1.67 and 0.83
same,Histopathology Scores Summed Scores,[3],7.50 and 7.33 and 9.92 and 13.83 and 5.42 and 10.17 and 11.58 and 12.67 and 3.58
same,Periosteal Bone Width (40*25x measure),[3],40.00 μm and 53.33 μm and 106.67 μm and 120.00 μm and 33.33 μm and 86.67 μm and 140.00 μm and 80.00 μm and 26.67 μm
same,Histopathology scores for knee and ankle joints,murine CIA,decreased histopathology scores
same,Periosteal bone width of paw and knee joints,murine CIA,slightly decreased
same,"Cartilage damage, bone resorption and inflammation in knees (microphotographs)","murine CIA, 103 mg/kg oral","decreasing of cartilage damage, bone resorption and inflammation in knees"
same,Clinical arthritis score (severity of inflammation),"murine CIA, MT-SYK-03 103 mg/kg oral",reduced the severity of inflammation
same,"% inhibition to Vehicle, Total AUC Sum (d1-11)","therapeutic/enrollment paw score, MT-SYK-03 103 mg/kg PO, BID (Group 4)",6%
same,"Total AUC Sum (d1-11), Mean","therapeutic/enrollment paw score, MT-SYK-03 103 mg/kg PO, BID (Group 4), group mean",59.75
same,Total AUC Sum (d1-11),"therapeutic/enrollment paw score, MT-SYK-03 103 mg/kg PO, BID (Group 4), individual animals, 103 mg/kg",79 and 81 and 73 and 33 and 42 and 102 and 83 and 38 and 36
same,"% inhibition to Vehicle, paw score Day 1","therapeutic/enrollment paws, Day 1, MT-SYK-03 103 mg/kg PO, BID (Group 4)",0%
same,"Average Paw Score Per Arthritis Day, Day 1, Mean","therapeutic/enrollment paws, Day 1, MT-SYK-03 103 mg/kg PO, BID (Group 4), group mean",3.20
same,"Average Paw Score Per Arthritis Day, Day 1","therapeutic/enrollment paws, Day 1, MT-SYK-03 103 mg/kg PO, BID (Group 4), individual animals, 103 mg/kg",4 and 2 and 6
same,"% inhibition to Vehicle, paw score Day 2","therapeutic/enrollment paws, Day 2, MT-SYK-03 103 mg/kg PO, BID (Group 4)",19%
same,"Average Paw Score Per Arthritis Day, Day 2, Mean","therapeutic/enrollment paws, Day 2, MT-SYK-03 103 mg/kg PO, BID (Group 4), group mean",3.80
same,"Average Paw Score Per Arthritis Day, Day 2","therapeutic/enrollment paws, Day 2, MT-SYK-03 103 mg/kg PO, BID (Group 4), individual animals, 103 mg/kg",4 and 6 and 2 and 3
same,"% inhibition to Vehicle, paw score Day 3","therapeutic/enrollment paws, Day 3, MT-SYK-03 103 mg/kg PO, BID (Group 4)",8%
same,"Average Paw Score Per Arthritis Day, Day 3, Mean","therapeutic/enrollment paws, Day 3, MT-SYK-03 103 mg/kg PO, BID (Group 4), group mean",5.40
same,"Average Paw Score Per Arthritis Day, Day 3","therapeutic/enrollment paws, Day 3, MT-SYK-03 103 mg/kg PO, BID (Group 4), individual animals, 103 mg/kg",6 and 8 and 3 and 4 and 9
same,"% inhibition to Vehicle, paw score Day 4","therapeutic/enrollment paws, Day 4, MT-SYK-03 103 mg/kg PO, BID (Group 4)",6%
same,"Average Paw Score Per Arthritis Day, Day 4, Mean","therapeutic/enrollment paws, Day 4, MT-SYK-03 103 mg/kg PO, BID (Group 4), group mean",5.80
same,"Average Paw Score Per Arthritis Day, Day 4","therapeutic/enrollment paws, Day 4, MT-SYK-03 103 mg/kg PO, BID (Group 4), individual animals, 103 mg/kg",7 and 8 and 6 and 4 and 10 and 3
same,"% inhibition to Vehicle, paw score Day 5","therapeutic/enrollment paws, Day 5, MT-SYK-03 103 mg/kg PO, BID (Group 4)",6%
same,"Average Paw Score Per Arthritis Day, Day 5, Mean","therapeutic/enrollment paws, Day 5, MT-SYK-03 103 mg/kg PO, BID (Group 4), group mean",6.20
same,"Average Paw Score Per Arthritis Day, Day 5","therapeutic/enrollment paws, Day 5, MT-SYK-03 103 mg/kg PO, BID (Group 4), individual animals, 103 mg/kg",8 and 7 and 4 and 11 and 3 and 9
same,"% inhibition to Vehicle, paw score Day 6","therapeutic/enrollment paws, Day 6, MT-SYK-03 103 mg/kg PO, BID (Group 4)",5%
same,"Average Paw Score Per Arthritis Day, Day 6, Mean","therapeutic/enrollment paws, Day 6, MT-SYK-03 103 mg/kg PO, BID (Group 4), group mean",6.30
same,"Average Paw Score Per Arthritis Day, Day 6","therapeutic/enrollment paws, Day 6, MT-SYK-03 103 mg/kg PO, BID (Group 4), individual animals, 103 mg/kg",8 and 4 and 11 and 3 and 9
same,"% inhibition to Vehicle, paw score Day 7","therapeutic/enrollment paws, Day 7, MT-SYK-03 103 mg/kg PO, BID (Group 4)",3%
same,"Average Paw Score Per Arthritis Day, Day 7, Mean","therapeutic/enrollment paws, Day 7, MT-SYK-03 103 mg/kg PO, BID (Group 4), group mean",6.60
same,"Average Paw Score Per Arthritis Day, Day 7","therapeutic/enrollment paws, Day 7, MT-SYK-03 103 mg/kg PO, BID (Group 4), individual animals, 103 mg/kg",9 and 8 and 4 and 11
same,"% inhibition to Vehicle, paw score Day 8","therapeutic/enrollment paws, Day 8, MT-SYK-03 103 mg/kg PO, BID (Group 4)",3%
same,"Average Paw Score Per Arthritis Day, Day 8, Mean","therapeutic/enrollment paws, Day 8, MT-SYK-03 103 mg/kg PO, BID (Group 4), group mean",6.80
same,"Average Paw Score Per Arthritis Day, Day 8","therapeutic/enrollment paws, Day 8, MT-SYK-03 103 mg/kg PO, BID (Group 4), individual animals, 103 mg/kg",10 and 9 and 3 and 5 and 11 and 4
same,"% inhibition to Vehicle, paw score Day 9","therapeutic/enrollment paws, Day 9, MT-SYK-03 103 mg/kg PO, BID (Group 4)",5%
same,"Average Paw Score Per Arthritis Day, Day 9, Mean","therapeutic/enrollment paws, Day 9, MT-SYK-03 103 mg/kg PO, BID (Group 4), group mean",6.90
same,"Average Paw Score Per Arthritis Day, Day 9","therapeutic/enrollment paws, Day 9, MT-SYK-03 103 mg/kg PO, BID (Group 4), individual animals, 103 mg/kg",10 and 9 and 3 and 5 and 12 and 4
same,"% inhibition to Vehicle, paw score Day 10","therapeutic/enrollment paws, Day 10, MT-SYK-03 103 mg/kg PO, BID (Group 4)",7%
same,"Average Paw Score Per Arthritis Day, Day 10, Mean","therapeutic/enrollment paws, Day 10, MT-SYK-03 103 mg/kg PO, BID (Group 4), group mean",6.90
same,"Average Paw Score Per Arthritis Day, Day 10","therapeutic/enrollment paws, Day 10, MT-SYK-03 103 mg/kg PO, BID (Group 4), individual animals, 103 mg/kg",10 and 9 and 3 and 5 and 12 and 4
same,"% inhibition to Vehicle, paw score Day 11","therapeutic/enrollment paws, Day 11, MT-SYK-03 103 mg/kg PO, BID (Group 4)",7%
same,"Average Paw Score Per Arthritis Day, Day 11, Mean","therapeutic/enrollment paws, Day 11, MT-SYK-03 103 mg/kg PO, BID (Group 4), group mean",6.90
same,"Average Paw Score Per Arthritis Day, Day 11","therapeutic/enrollment paws, Day 11, MT-SYK-03 103 mg/kg PO, BID (Group 4), individual animals, 103 mg/kg",10 and 9 and 3 and 5 and 12 and 4
